How the values were obtained:
Experiment in all cases: relative viability (nuclei count vs DMSO), 5 days (fraction); higher = more cells survive
LK-2 = tested on: LK-2
Summary of the method: (§1)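 Relative viability equals treated-well nuclei counts divided by vehicle-well nuclei counts. Counts came from 4× images of lung cancer cell lines grown in 1536-well plates for 5 days after pin-tool dosing on the day after seeding. Dosing used one drug alone or a fixed anchor-drug dose plus five library-drug doses (not always all listed) in √10 steps, and values are medians of duplicate plates.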

NCI-H2085 = tested on: NCI-H2085
Summary of the method: as §1

SW 1573 = tested on: SW 1573
Summary of the method: as §1

NCI-H650 = tested on: NCI-H650
Summary of the method: as §1

NCI-H460 = tested on: NCI-H460
Summary of the method: as §1

ChaGo-K-1 = tested on: ChaGo-K-1
Summary of the method: as §1

NCI-H596 = tested on: NCI-H596
Summary of the method: as §1

NCI-H1944 = tested on: NCI-H1944
Summary of the method: as §1

NCI-H2347 = tested on: NCI-H2347
Summary of the method: as §1

A-427 = tested on: A-427
Summary of the method: as §1

NCI-H1666 = tested on: NCI-H1666
Summary of the method: as §1

NCI-H520 = tested on: NCI-H520
Summary of the method: as §1

NCI-H358 = tested on: NCI-H358
Summary of the method: as §1

NCI-H441 = tested on: NCI-H441
Summary of the method: as §1

NCI-H1355 = tested on: NCI-H1355
Summary of the method: as §1

NCI-H322M = tested on: NCI-H322M
Summary of the method: as §1

NCI-H1650 = tested on: NCI-H1650
Summary of the method: as §1

NCI-H838 = tested on: NCI-H838
Summary of the method: as §1

NCI-H3122 = tested on: NCI-H3122
Summary of the method: as §1

H3255 = tested on: H3255
Summary of the method: as §1

NCI-H1755 = tested on: NCI-H1755
Summary of the method: as §1

EKVX = tested on: EKVX
Summary of the method: as §1

Cc1cnc(-c2cnc(NCCNc3ccc(C#N)cn3)nc2-c2ccc(Cl)cc2Cl)[nH]1 + Nc1ncn([C@H]2C[C@H](O)[C@@H](CO)O2)c(=O)n1 [Decitabine] (partner 2 µM)
relative viability (LK-2; first compound 0.08 µM): 0.27 | relative viability (LK-2; first compound 0.253 µM): 0.275 | relative viability (LK-2; first compound 0.8 µM): 0.323 | relative viability (LK-2; first compound 2.53 µM): 0.395 | relative viability (NCI-H2085; first compound 0.08 µM): 0.535 | relative viability (NCI-H2085; first compound 0.253 µM): 0.554 | relative viability (NCI-H2085; first compound 0.8 µM): 0.542 | relative viability (NCI-H2085; first compound 2.53 µM): 0.572 | relative viability (SW 1573; first compound 0.08 µM): 0.583 | relative viability (SW 1573; first compound 0.253 µM): 0.457 | relative viability (SW 1573; first compound 0.8 µM): 0.474 | relative viability (SW 1573; first compound 2.53 µM): 0.354 | relative viability (NCI-H650; first compound 0.08 µM): 0.356 | relative viability (NCI-H650; first compound 0.253 µM): 0.339 | relative viability (NCI-H650; first compound 0.8 µM): 0.302 | relative viability (NCI-H650; first compound 2.53 µM): 0.329 | relative viability (NCI-H460; first compound 0.08 µM): 0.537 | relative viability (NCI-H460; first compound 0.253 µM): 0.454 | relative viability (NCI-H460; first compound 0.8 µM): 0.54 | relative viability (NCI-H460; first compound 2.53 µM): 0.488 | relative viability (ChaGo-K-1; first compound 0.08 µM): 0.546 | relative viability (ChaGo-K-1; first compound 0.253 µM): 0.485 | relative viability (ChaGo-K-1; first compound 0.8 µM): 0.499 | relative viability (ChaGo-K-1; first compound 2.53 µM): 0.466 | relative viability (NCI-H596; first compound 0.08 µM): 1.08 | relative viability (NCI-H596; first compound 0.253 µM): 0.995 | relative viability (NCI-H596; first compound 0.8 µM): 1.03 | relative viability (NCI-H596; first compound 2.53 µM): 1.07 | relative viability (NCI-H1944; first compound 0.08 µM): 0.476 | relative viability (NCI-H1944; first compound 0.8 µM): 0.5 | relative viability (NCI-H1944; first compound 2.53 µM): 0.402 | relative viability (NCI-H2347; first compound 0.08 µM): 0.708 | relative viability (NCI-H2347; first compound 0.253 µM): 0.55 | relative viability (NCI-H2347; first compound 0.8 µM): 0.65 | relative viability (NCI-H2347; first compound 2.53 µM): 0.65 | relative viability (A-427; first compound 0.08 µM): 0.535 | relative viability (A-427; first compound 0.253 µM): 0.526 | relative viability (A-427; first compound 0.8 µM): 0.61 | relative viability (A-427; first compound 2.53 µM): 0.618 | relative viability (NCI-H1666; first compound 0.08 µM): 0.759 | relative viability (NCI-H1666; first compound 0.253 µM): 0.713 | relative viability (NCI-H1666; first compound 0.8 µM): 0.618 | relative viability (NCI-H1666; first compound 2.53 µM): 0.844 | relative viability (NCI-H520; first compound 0.08 µM): 0.531 | relative viability (NCI-H520; first compound 0.253 µM): 0.504 | relative viability (NCI-H520; first compound 0.8 µM): 0.563 | relative viability (NCI-H520; first compound 2.53 µM): 0.546 | relative viability (NCI-H358; first compound 0.08 µM): 0.234 | relative viability (NCI-H358; first compound 0.253 µM): 0.208 | relative viability (NCI-H358; first compound 0.8 µM): 0.248 | relative viability (NCI-H358; first compound 2.53 µM): 0.213 | relative viability (NCI-H441; first compound 0.08 µM): 0.238 | relative viability (NCI-H441; first compound 0.8 µM): 0.251 | relative viability (NCI-H441; first compound 2.53 µM): 0.255 | relative viability (NCI-H1355; first compound 0.08 µM): 0.354 | relative viability (NCI-H1355; first compound 0.253 µM): 0.316 | relative viability (NCI-H1355; first compound 0.8 µM): 0.36 | relative viability (NCI-H1355; first compound 2.53 µM): 0.371 | relative viability (NCI-H322M; first compound 0.08 µM): 0.654 | relative viability (NCI-H322M; first compound 0.253 µM): 0.655 | relative viability (NCI-H322M; first compound 0.8 µM): 0.567 | relative viability (NCI-H322M; first compound 2.53 µM): 0.726 | relative viability (NCI-H1650; first compound 0.08 µM): 0.478 | relative viability (NCI-H1650; first compound 0.253 µM): 0.259 | relative viability (NCI-H1650; first compound 0.8 µM): 0.397 | relative viability (NCI-H1650; first compound 2.53 µM): 0.443 | relative viability (NCI-H838; first compound 0.08 µM): 0.503 | relative viability (NCI-H838; first compound 0.253 µM): 0.506 | relative viability (NCI-H838; first compound 0.8 µM): 0.47 | relative viability (NCI-H838; first compound 2.53 µM): 0.46 | relative viability (NCI-H3122; first compound 0.08 µM): 0.461 | relative viability (NCI-H3122; first compound 0.8 µM): 0.461 | relative viability (NCI-H3122; first compound 2.53 µM): 0.386 | relative viability (H3255; first compound 0.08 µM): 0.765 | relative viability (H3255; first compound 0.253 µM): 0.531 | relative viability (H3255; first compound 0.8 µM): 0.551 | relative viability (H3255; first compound 2.53 µM): 0.567 | relative viability (NCI-H1755; first compound 0.08 µM): 0.723 | relative viability (NCI-H1755; first compound 0.253 µM): 0.726 | relative viability (NCI-H1755; first compound 0.8 µM): 0.771 | relative viability (NCI-H1755; first compound 2.53 µM): 0.704 | relative viability (EKVX; first compound 0.08 µM): 0.386 | relative viability (EKVX; first compound 0.253 µM): 0.315 | relative viability (EKVX; first compound 0.8 µM): 0.34 | relative viability (EKVX; first compound 2.53 µM): 0.351
